Source: US9867795B2, “Nitrated lipids and methods of making and using thereof” (The UAB Research Foundation, priority 2004, dated 2018)
Entries after “also recorded” stand apart in the source; their conditions may differ.

Assays:
hPPARγ = biological target: T1, hPPARγ (Homo sapiens, UniProt P37231); assay: CV-1 PPRE×3 TK-Luciferase transient transfection assay; assay type: cell-based; settings: GW9662 added 1 hr prior to nitrated fatty acid
T1 construct: For assessing full-length PPAR receptors, CV-1 cells were transiently co-transfected; expressed in transfected cells; host or cells: CV-1 cells
T1 sequence (P37231 1-505): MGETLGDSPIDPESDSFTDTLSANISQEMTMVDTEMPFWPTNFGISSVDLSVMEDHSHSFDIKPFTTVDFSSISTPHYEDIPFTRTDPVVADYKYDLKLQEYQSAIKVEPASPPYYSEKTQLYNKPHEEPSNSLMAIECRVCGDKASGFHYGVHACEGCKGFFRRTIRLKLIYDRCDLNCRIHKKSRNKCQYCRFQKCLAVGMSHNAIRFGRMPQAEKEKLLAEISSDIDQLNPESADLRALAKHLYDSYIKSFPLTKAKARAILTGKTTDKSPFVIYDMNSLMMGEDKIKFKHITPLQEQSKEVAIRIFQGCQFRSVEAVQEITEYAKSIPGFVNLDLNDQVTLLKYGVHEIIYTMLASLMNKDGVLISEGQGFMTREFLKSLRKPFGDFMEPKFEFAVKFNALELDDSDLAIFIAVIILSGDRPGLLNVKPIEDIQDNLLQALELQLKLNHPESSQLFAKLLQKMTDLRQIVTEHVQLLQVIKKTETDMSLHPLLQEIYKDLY
Text: Cell Transient Transfection Assay. […] Then, cells were transiently co-transfected with a plasmid containing the luciferase gene under regulation by four Gal4 DNA binding elements (UASG×4 TK-Luciferase, a gift from Dr. Ronald M. Evans), in concert with plasmids containing the ligand binding domain for the different nuclear receptors fused to the Gal4 DNA binding domain. For assessing full-length PPAR receptors, CV-1 cells were transiently co-transfected with a plasmid containing the luciferase gene under the control of three tandem PPAR response elements (PPRE) (PPRE×3 TK-Luciferase) and hPPARγ, hPPARα or hPPARδ expression plasmids, respectively. In all cases, fluorescence protein (GFP) expression plasmid was co-transfected as the control for the transfection efficiency. Twenty-four hours after the transfection, cells were cultured for another 24 hours in Optium-MEM (Invitrogen, Carlsbad, Calif.). Then, cells were treated with different compounds as indicated in figures for 24 hours in Optium-MEM. Reporter luciferase assay kits from Promega (Madison, Wis.) were used to measure the luciferase activity according to the manufacturer's instructions with a luminometer (Victor II, Perkin-Elmer). Luciferase activity was normalized by GFP units. Each condition was performed at least in triplicates in each experiment.
PPAR transient transfection assay. […] Twelve hours before transfection, the media was removed and antibiotic-free media was applied. Cells were transiently co-transfected with a plasmid containing the luciferase gene under the control of three tandem PPAR response elements (PPRE) (PPRE×3 TK-Luciferase) and PPARγ, PPARα or PPARδ expression plasmids, respectively. In all cases, fluorescence protein (GFP) expression plasmid was co-transfected as the control for transfection efficiency. Twenty-four hours after transfection, cells the returned to OptiMEM (Invitrogen, Carlsbad, Calif.) for 24 hr and then treated as indicated for another 24 hr. Reporter luciferase assay kits from Promega (Madison, Wis.) were used to measure the luciferase activity according to the manufacturer's instructions with a luminometer (Victor II, Perkin-Elmer). Luciferase activity was normalized by GFP units. Each condition was performed in triplicate in each experiment (n>3).

3T3-L1 adipocytes = assay: [^3H]-2-Deoxy-D-glucose uptake assay in differentiated 3T3-L1 adipocytes; assay type: cell-based; settings: GW9662 added 1 h before nitrated lipids or Rosiglitazone
Method: [^3H]-2-Deoxy-D-glucose Uptake Assay in Differentiated 3T3-L1 Adipocyte. [^3H]-2-Deoxy-D-glucose uptake assay as previously described (19) 3T3-L1 preadipocytes were grown in 24-well tissue culture plates, 2-day postconfluent preadipocytes were treated by 10 μg/ml insulin (Sigma), 1 μM dexamethasone (Sigma), and 0.5 mM 3-isobutyl-1-methylxanthine (Sigma) in DMEM containing 10% FBS for two days, then cells were kept in 10 μg/ml insulin also in DMEM containing 10% FBS for 6 days (changed medium every three days). Eight days after induction of adipogenesis, test compounds in DMEM containing 10% FBS were added for an additional 2 days (changed medium every day) and PPARγ-specific antagonist GW9662 were pretreated 1 h before other additions. After two rinses with serum-free DMEM, cells were incubated for 3 h in serum-free DMEM and rinsed at room temperature three times with freshly prepared KRPH buffer (5 mM phosphate buffer, 20 mM HEPES, 1 mM MgSO4, 1 mM CaCl2, 136 mM NaCl, 4.7 mM KCl, pH 7.4). The buffer was replaced with 1 μCi/ml of [^3H]-2-deoxy-D-glucose in KRPH buffer for 10 min at room temperature. The treated cells were rinsed carefully three times with cold PBS, lysed overnight in 0.8N NaOH (0.4 ml/well), and neutralized with […] of 12N HCl. Lysate (360 μl) was added to 4 ml Scinti-Safe Plus TM 50% in a scintillation vial, and the vials were mixed and counted.
[^3H]-2-Deoxy-D-glucose uptake assay in differentiated 3T3-L1 adipocytes. [^3H]-2-deoxy-D-glucose uptake was analyzed as previously (23). […] Cells were then rinsed three times with cold PBS, lysed overnight in 0.8 N NaOH (0.4 ml/well), neutralized with 26.6 μl of 12 N HCl and 360 μl of lysate was added into 4 ml Scinti-Safe Plus™ 50% for radioactivity determination by liquid scintillation counting.

[1] = test system: mouse RAW264.7 macrophages; assay: CD36 expression in macrophages (immunoblot, real-time PCR); settings: GW9662 added 1 h prior to treatment

In the case of `O=C(Nc1ccccc1)c1cc([N+](=O)[O-])ccc1Cl` [GW9662, reference compound], the “effect of GW9662 on nitrated fatty acid-mediated PPARγ activation” value (hPPARγ) is reported as “inhibited in a dose-dependent manner; also recorded: partially inhibited; also recorded: partially yet significantly blocked”, the “effect of GW9662 on induced glucose uptake” value (3T3-L1 adipocytes) is reported as “partially inhibited; also recorded: significantly inhibited” and the “effect of GW9662 on LNO2-induced CD36 expression” value [1] is reported as “partially inhibitable”.
